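48-hour exposure; five concentrations; linearly interpolated endpoints. Definition used: TGI = concentration required for complete inhibition of growth.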

Test systems include SW-620 colon; CCRF-CEM leukemia; HCT-15 colon; SF-268 CNS; NCI-H522 lung; SNB-75 CNS; NCI/ADR-RES ovarian; HS 578T breast; ACHN renal; RPMI-8226 leukemia.
What all share (experiment): inhibition of tumour cell growth, NCI panel, 48 h

Take `CC(=O)CC(O)(C(F)(F)Cl)C(F)(Cl)Cl` (stereo not given): the TGI in the experiment on SW-620 colon, in the experiment on CCRF-CEM leukemia, in the experiment on HCT-15 colon, in the experiment on SF-268 CNS, with NCI-H522 lung and with SNB-75 CNS was over 10 µM throughout. Further, the TGI in the experiment with NCI/ADR-RES ovarian, with HS 578T breast and with ACHN renal was over 10 µM each time.

As for `O=C(O)c1ccccc1Sc1ccc(C=C2NC(=S)N(c3ccccc3)C2=O)s1`, the TGI in the experiment with SW-620 colon was over 100 µM; in the experiment on RPMI-8226 leukemia it was over 100 µM; with HCT-15 colon, over 100 µM; in the experiment on SF-268 CNS it was over 100 µM; in the experiment with NCI-H522 lung, 38.9 µM; in the experiment with SNB-75 CNS it was over 100 µM. Also, the TGI in the experiment with NCI/ADR-RES ovarian, with HS 578T breast and with ACHN renal was over 100 µM in each case.

For the compound `Cc1csc(NCc2ccc(Cl)cc2)n1`, the TGI in the experiment on SW-620 colon, with RPMI-8226 leukemia, in the experiment with CCRF-CEM leukemia, in the experiment on HCT-15 colon, in the experiment on SF-268 CNS and in the experiment on NCI-H522 lung was over 100 µM each time. The TGI in the experiment with SNB-75 CNS, with NCI/ADR-RES ovarian, in the experiment with HS 578T breast and with ACHN renal was over 100 µM each time.

Turning to `CNC(=O)OC1/C(C)=C\C(C)C(O)C(OC)CC(C)CC2=C(OC)C(=O)C=C(C2=O)N(C)C(=O)/C(C)=C/C=C\C1OC` (stereo not given), the TGI in the experiment on SW-620 colon was found to be 12.5 µM; with RPMI-8226 leukemia, 13.2 µM; in the experiment with CCRF-CEM leukemia, 4.08 µM; in the experiment with HCT-15 colon, 17.5 µM; in the experiment on SF-268 CNS it was 26.1 µM; in the experiment with NCI-H522 lung it was 6.09 µM. Besides, the TGI in the experiment on SNB-75 CNS amounted to 28.6 µM; in the experiment with NCI/ADR-RES ovarian it was 62 µM; with HS 578T breast, 15.3 µM; in the experiment with ACHN renal it was 20.9 µM.

Turning to `O=C1OCOC2(CCCC2)C1c1ccccc1` (stereo not given), the TGI in the experiment on SW-620 colon, with RPMI-8226 leukemia, in the experiment on CCRF-CEM leukemia, with HCT-15 colon, in the experiment with SF-268 CNS and in the experiment with NCI-H522 lung was over 100 µM in each case. Further, the TGI in the experiment with SNB-75 CNS, in the experiment with NCI/ADR-RES ovarian, in the experiment on HS 578T breast and with ACHN renal was over 100 µM in each case.

Consider `CCn1c(=O)c2nc(SC)sc2n(-c2ccccc2)c1=S`, for which the TGI in the experiment with SW-620 colon, with RPMI-8226 leukemia, in the experiment with CCRF-CEM leukemia, with HCT-15 colon, in the experiment on SF-268 CNS and with NCI-H522 lung was over 100 µM in each case. In addition, the TGI in the experiment on SNB-75 CNS, in the experiment with NCI/ADR-RES ovarian, with HS 578T breast and in the experiment on ACHN renal was over 100 µM throughout.

For `C#C[C@]1(O)CC[C@H]2[C@@H]3CCC4=C/C(=N/OC(=O)c5cccc6cc7ccccc7nc56)CC[C@@H]4[C@H]3CC[C@@]21CC`, the TGI with SW-620 colon, in the experiment on RPMI-8226 leukemia, in the experiment with CCRF-CEM leukemia, in the experiment with HCT-15 colon, in the experiment on SF-268 CNS and with SNB-75 CNS was over 100 µM each time. Further, the TGI with NCI/ADR-RES ovarian, in the experiment with HS 578T breast and in the experiment on ACHN renal was over 100 µM in each case.

On to `CCOC(=O)/C(C(=O)c1ccc[nH]1)=C1/CCCN1C`, for which the TGI in the experiment with SW-620 colon, in the experiment on RPMI-8226 leukemia, with CCRF-CEM leukemia, in the experiment with HCT-15 colon, in the experiment with SF-268 CNS and in the experiment on SNB-75 CNS was over 100 µM throughout. The TGI in the experiment on NCI/ADR-RES ovarian, in the experiment with HS 578T breast and with ACHN renal was over 100 µM each time.

With `O=[N+]([O-])C(/C=C(\Cl)[N+](=O)[O-])=C(N1CCOCC1)N1CCOCC1`, the TGI with RPMI-8226 leukemia was 54.6 µM; in the experiment on CCRF-CEM leukemia, over 100 µM; in the experiment with HCT-15 colon, over 100 µM; in the experiment on SF-268 CNS, over 100 µM; in the experiment with NCI-H522 lung it was over 100 µM; in the experiment on SNB-75 CNS it was over 100 µM. The TGI in the experiment on NCI/ADR-RES ovarian, in the experiment with HS 578T breast and with ACHN renal was over 100 µM throughout.

Turning to `N#CC1=C(N)OC2=C(CCCc3ccc([N+](=O)[O-])cc32)C1c1ccc(Cl)cc1` (stereo not given), the TGI with SW-620 colon is over 100 µM; in the experiment on RPMI-8226 leukemia, 32 µM; with CCRF-CEM leukemia it was over 100 µM; in the experiment on HCT-15 colon, over 100 µM; in the experiment on SF-268 CNS, over 100 µM; in the experiment on NCI-H522 lung it was 31.7 µM. For the same compound, the TGI in the experiment with SNB-75 CNS was over 100 µM; with NCI/ADR-RES ovarian it was 78.1 µM; in the experiment on HS 578T breast, 88.8 µM; with ACHN renal, 46.5 µM.

On to `Cc1cc2nc3c(N)nn(CCCN(C)C)c3nc2cc1C`, for which the TGI with SW-620 colon, with RPMI-8226 leukemia, with HCT-15 colon, in the experiment on SF-268 CNS, in the experiment with SNB-75 CNS and in the experiment with NCI/ADR-RES ovarian was over 100 µM each time. Further, the TGI in the experiment with HS 578T breast and in the experiment on ACHN renal was over 100 µM throughout.

Consider `CCN(CC)C(=O)N[C@@H](CC(C)C)C(=O)NC`, for which the TGI in the experiment on SW-620 colon, with RPMI-8226 leukemia, in the experiment on CCRF-CEM leukemia, with HCT-15 colon, with SF-268 CNS and with NCI-H522 lung was over 100 µM in each case. Moreover, the TGI in the experiment with SNB-75 CNS, in the experiment on NCI/ADR-RES ovarian, in the experiment on HS 578T breast and in the experiment on ACHN renal was over 100 µM throughout.

Take `CCOC(=O)c1c(NS(=O)(=O)c2ccccc2)sc2c1CCCC2`: the TGI in the experiment on RPMI-8226 leukemia, in the experiment with CCRF-CEM leukemia, in the experiment on HCT-15 colon, in the experiment on SF-268 CNS, with SNB-75 CNS and in the experiment on NCI/ADR-RES ovarian was over 100 µM throughout. The TGI in the experiment with HS 578T breast and in the experiment with ACHN renal was over 100 µM each time.

Take `CC(C)=CC(=O)c1[nH]c2ccccc2c1CC(=O)NCCc1cnc[nH]1`: the TGI in the experiment on SW-620 colon, in the experiment with CCRF-CEM leukemia, in the experiment with HCT-15 colon, in the experiment with SF-268 CNS, in the experiment on NCI-H522 lung and in the experiment with SNB-75 CNS was over 100 µM in each case. Moreover, the TGI in the experiment with NCI/ADR-RES ovarian, with HS 578T breast and with ACHN renal was over 100 µM in each case.
